How the values were obtained:
[1] = test system: MEK-ERK1/2 signaling pathway; experiment: Kynurenine-stimulated MMP-1 expression in dermal fibroblasts with MEK/ERK1/2 phosphorylation inhibitors; assay type: cell-based, human; settings: 100 μg/ml kynurenine
Method: Cells were harvested by Trypsin/EDTA and lysed with cell lysis buffer containing 50 mM Tris-HCl (pH7.40), 150 mM NaCl, 10 mM EDTA, 5 mM EGTA, 1% TritonX-100™, 0.5% Igepal CA-630, 0.025% NaN3 and protease inhibitor cocktail (Sigma™). Cell debris was removed by centrifugation at 20,000×g for 10 minutes. The protein concentration in supernatant was determined using the MicroBCA™ method (Pierce™, Rockford, Ill.). Proteins in supernatant were mixed with protein sample loading buffer (final concentration: 60 mM Tris-HCl (pH 6.80), 2% SDS, 10% glycerol, 1.5% β-mercaptoethanol, 0.002% bromophenol blue) and size fractioned by 10% of SDS-polyacrylamide gel. After proteins were transferred onto nitrocellulose membrane by iBlot™ (Invitrogen Life Technologies™), non-specific binding were blocked with phosphate buffer saline twenty 20 (PBS-T) containing 5% skim milk for 1 hour. The membrane was then incubated with primary antibody overnight. After incubation with a secondary antibody for 1 hour, protein bands were visualized by an enhanced chemiluminescence (ECL™) detection system (Santa Cruz Biotechnology™, Santa Cruz, Calif.). […]

MMP-1 = MMP-1 expression in human dermal fibroblasts, Western blot; assay type: cell-based
Method: Cells were then harvested after 48 hours and western blot analysis was performed.
Cells were harvested by Trypsin/EDTA and lysed with cell lysis buffer containing 50 mM Tris-HCl (pH7.40), 150 mM NaCl, 10 mM EDTA, 5 mM EGTA, 1% TritonX-100™, 0.5% Igepal CA-630, 0.025% NaN3 and protease inhibitor cocktail (Sigma™). Cell debris was removed by centrifugation at 20,000×g for 10 minutes. The protein concentration in supernatant was determined using the MicroBCA™ method (Pierce™, Rockford, Ill.). Proteins in supernatant were mixed with protein sample loading buffer (final concentration: 60 mM Tris-HCl (pH 6.80), 2% SDS, 10% glycerol, 1.5% β-mercaptoethanol, 0.002% bromophenol blue) and size fractioned by 10% of SDS-polyacrylamide gel. After proteins were transferred onto nitrocellulose membrane by iBlot™ (Invitrogen Life Technologies™), non-specific binding were blocked with phosphate buffer saline twenty 20 (PBS-T) containing 5% skim milk for 1 hour. The membrane was then incubated with primary antibody overnight. After incubation with a secondary antibody for 1 hour, protein bands were visualized by an enhanced chemiluminescence (ECL™) detection system (Santa Cruz Biotechnology™, Santa Cruz, Calif.). The primary antibodies used in this study were: mouse monoclonal anti-human MMP-1 (R&D Systems™, Minneapolis, Minn.), mouse monoclonal anti-human MMP-3 (R&D System™), rabbit monoclonal anti-human MMP-2 (Epitomics™, Burlingame, Calif.), rabbit polyclonal anti-phospho-MEK1/2 (Ser217/221™) (Cell Signaling Technology™, Danvers, Mass.), rabbit polyclonal anti-phospho-p44/42 MAPK (Thr202/Tyr204) (Cell Signaling Technology™), monoclonal anti-β-actin (Sigma™), and mouse anti-type-1 procollagen (Developmental Studies Hybridoma Bank™, Iowa City, Iowa). The secondary antibodies were either goat anti-mouse IgG (H+L) HPR conjugate or goat anti-rabbit IgG (H+L) HPR conjugate (Bio-rad Laboratory™ (Mississauga, ON, Canada). Secondary antibodies were used at a concentration of 1:3000.

splenocytes = experiment: ConA-induced splenocyte proliferation; assay type: cell-based; settings: for reduction in conA-induced splenocyte proliferation: 100 and 150 μg/ml
type 1 procollagen = experiment: Type 1 procollagen expression in dermal fibroblasts, Western blot; assay type: cell-based, human; settings: kynurenine analogues/metabolites, FIG. 10 bottom
Method: (§1) Cell debris was removed by centrifugation at 20,000×g for 10 minutes. The protein concentration in supernatant was determined using the MicroBCA™ method (Pierce™, Rockford, Ill.). Proteins in supernatant were mixed with protein sample loading buffer (final concentration: 60 mM Tris-HCl (pH 6.80), 2% SDS, 10% glycerol, 1.5% β-mercaptoethanol, 0.002% bromophenol blue) and size fractioned by 10% of SDS-polyacrylamide gel. After proteins were transferred onto nitrocellulose membrane by iBlot™ (Invitrogen Life Technologies™), non-specific binding were blocked with phosphate buffer saline twenty 20 (PBS-T) containing 5% skim milk for 1 hour. The membrane was then incubated with primary antibody overnight. After incubation with a secondary antibody for 1 hour, protein bands were visualized by an enhanced chemiluminescence (ECL™) detection system (Santa Cruz Biotechnology™, Santa Cruz, Calif.). […] The secondary antibodies were either goat anti-mouse IgG (H+L) HPR conjugate or goat anti-rabbit IgG (H+L) HPR conjugate (Bio-rad Laboratory™ (Mississauga, ON, Canada). Secondary antibodies were used at a concentration of 1:3000.

MMP-3 = MMP-3 expression in human dermal fibroblasts, Western blot; assay type: cell-based
Method: Cells were then harvested by trypsinization and western blot analysis was performed.
as §1

fibronectin = experiment: Fibronectin mRNA in human dermal fibroblasts, real-time PCR; assay type: cell-based; settings: various concentration
[2] = kynurenine isoforms, 50 μg/ml, 48 hours

For `COc1cccc(-c2cc(=O)c3ccccc3o2)c1N` [PD98059], the “effect on kynurenine-stimulated MMP-1 expression” value ([1]; various concentration of PD98059, dose-dependent) was “effectively prevented”.
For `N#CC(=C(/N)Sc1ccccc1N)/C(C#N)=C(\N)Sc1ccccc1N` [U0126], the “effect on up-regulation of MMP-1 expression by kynurenine” value ([1]; to M and 30 μM of U0126) was “significantly reduced”.
With `Nc1ccccc1C(=O)C[C@@H](N)C(=O)O` [D-kynurenine] the MMP-1 expression (MMP-1; [2]) was “increase”, the “reduction in conA-induced splenocyte proliferation” value (shortened to “reduction”) (splenocytes; after 48 hours) was “about 2 fold” and the “reduction” value (splenocytes; after 96 hours) was roughly 5 fold.
With `O=C(O)c1cc(=O)c2ccccc2[nH]1` [kynurenic acid] the “MMP-1 induction (general statement)” value (MMP-1) was “induce”, the “MMP1 protein expression 48 hours after treatment removal” value (MMP-1; 100 μg/ml for 48 hours, then 48 hours after removal) was “remained higher than controls” and the “MMP1 expression versus untreated cells after treatment removal” value (MMP-1; 100 μg/ml for 48 hours, then another 24 hours after removal) was “remained significantly higher”. For the same molecule, the “lasting effect on expression of MMP-1 relative to Kyn” value (MMP-1; 100 μg/ml for 48 hours, then removal) was “longer lasting effect”, the MMP1 expression (MMP-1; 100 μg/ml, at 48 hours after treatment) was “marked increase” and the “expression of type 1 procollagen” value (type 1 procollagen) was “effective at inhibiting”. For the same molecule, the “MMP-3 induction (general statement)” value (MMP-3) was “induce”, the “effect on splenocyte proliferation compared with other metabolites” value (splenocytes) was “less effect” and the “reduction” value (splenocytes; after 96 hours) was roughly 5 fold.
In the case of `O=C(O)c1cc(O)c2cccc(O)c2n1` [xanthurenic acid], the “MMP-1 induction (general statement)” value (MMP-1) is reported as “induce”, the “expression of type 1 procollagen” value (type 1 procollagen) is reported as “effective at inhibiting” and the “MMP-3 induction (general statement)” value (MMP-3) is reported as “induce”.
In the case of `Nc1ccccc1C(=O)C[C@H](N)C(=O)O` [L-kynurenine], the “activity on MMP-1 expression compared with the other isoforms” value (MMP-1; 50 μg/ml, 48 hours) is reported as “more activity compared to other two isoforms”, the MMP-1 expression (MMP-1; [2]) is reported as “increase” and the “fibronectin expression (mRNA)” value (fibronectin) is reported as “capable of down-regulating”. For the same molecule, the “reduction” value (splenocytes; after 48 hours) was “about 2 fold” and the “reduction” value (splenocytes; after 96 hours) was roughly 5 fold.
With `N[C@@H](Cc1c[nH]c2ccccc12)C(=O)O` [tryptophan, reference compound] the “MMP-1 expression, presence of tryptophan versus tryptophan-depleted media” value (MMP-1; 25 μg/ml tryptophan, 48 hrs) was “no significant difference” and the MMP-1 expression (MMP-1; various concentration of tryptophan, 48 hours) was “failed to increase”.

From patent US9737523B2, “Anti-fibrogenic compounds, methods and uses thereof” (priority 2013, dated 2017)
